Measured values taken from patent US20070208086A1, “UBIQUINONE ANALOGS AND METHODS OF USE” (THE REGENTS OF THE UNIVERSITY OF CALIFORNIA, priority 2006, published 2007).

Assay: Determination of reduction potentials by cyclic voltametry (CV)
Format: physicochemical
Text: In one embodiment, the compound of the invention has a reduction potential, which is different from the reduction potential of CoQ10. In an exemplary embodiment, the reduction potential found for the compound of the invention is lower than the reduction potential of CoQ10. Methods for the determination of reduction potentials are known in the art and are, for example, described in A. J. Fry, Synthetic Organic Electrochemistry, 2nd Ed., Wiley-Interscience, New York, 1989. For example the reduction potential is measured against the Ag/AgNO3 redox system. “Reduction potential” can mean “first reduction potential”, in which a first electron is transferred (e.g., Q→Q ? ), or “second reduction potential”, in which a second electron is transferred (e.g., Q ? →Q^−2). Typically, “reduction potential” for the purpose of comparing compounds, means the first reduction potential. However, for certain compounds a distinction between a first and a second reduction potential cannot be measured. In these cases, the “overall” (measurable) reduction potential is used to compare reduction potential values of compounds. The reduction potentials for selected ubiquinone analogs of the invention are summarized in Example 12, below. For example, while the first reduction potential of CoQ10 in a particular assay is −1.11, the first reduction potential found for compound 9 is −1.22, which is lower than −1.11. In another example, the overall reduction potential for compound 7 is −1.44, which is lower than −1.11 for CoQ10. In an exemplary embodiment, the ratio (a/b) between the reduction potential of a compound of the invention (a) and the reduction potential of CoQ10 to (b) in a particular assay is between about 1 and about 50. In another exemplary embodiment, the ratio is between about 1 and about 40, preferably between about 1 and about 30, more preferably between about 1 and about 20, and even more preferably between about 1 and about 10. In yet another exemplary embodiment, the ratio is between about 1 and about 8 preferably between about 1 and about 6, more preferably between about 1 and about 4, and most preferably between about 1 and about 2.
The redox chemistry of a variety of purified ubiquinones of the invention was examined using cyclic voltametry (CV). Methods for the determination of reduction potentials are known in the art and are, for example, described in A. J. Fry, Synthetic Organic Electrochemistry, 2nd Ed., Wiley-Interscience, New York, 1989.
The resulting redox data (including those for CoQ10) are listed in the order of increasing first-wave potentials (Epc1) in Table 1, below. The abbreviation Epc1 and Epc2 are used to represent the values of the first and second cathodic peak potentials, respectively. The peak potentials correspond to the first and second reduction wave minima in the recorded CV graphs (see e.g., FIG. 1).
The value of the second peak potential is, typically, an approximation. Chemical side reactions coupled to the transient species generated in the first reduction may contribute to the shape of the wave, and thus the peak potential. […] Representative first and second reduction waves for analogs 1 and 23, as well as for CoQ10, are illustrated in FIG. 1, which represents an expanded portion of the recorded CV graph.

Q/Q*− (Epc1), first wave potential (Epc vs. Ag/AgNO3 in DMF, first cathodic peak potential): −1.11 V
Q*−/Q−2 (Epc2), second wave potential (Epc vs. Ag/AgNO3 in DMF, second cathodic peak potential, typically an approximation): −1.42 V
first reduction potential (FIG. 1 reduction waves): -1.11 V
second reduction potential (FIG. 1 reduction waves): -1.42 V
first reduction potential (in a particular assay): −1.11
SMILES: COC1=C(OC)C(=O)C(C/C=C(\C)CC/C=C(\C)CC/C=C(\C)CC/C=C(\C)CC/C=C(\C)CC/C=C(\C)CC/C=C(\C)CC/C=C(\C)CC/C=C(\C)CCC=C(C)C)=C(C)C1=O [CoQ10]
